Measured values reported in patent EP4647082A1, “PHARMACEUTICAL COMPOSITION COMPRISING A CGRP RECEPTOR ANTAGONIST FOR THE TREATMENT OF ACUTE MIGRAINE” (NUVIE BIO, Inc., priority 2024, dated 2025).
Bridge positions count the residues as written; N and C are the ends. Square brackets hold non-standard residues; d marks the D form. Peptide text beside a SMILES is read from it. * marks the point of attachment. Phe(2-CONH2) = NC(=O)c1ccccc1C[C@H](N)C(=O)O; Orn(iPr) = CC(C)NCCC[C@H](N)C(=O)O; Oxazole2carbonyl = O=C(c1ncco1)*; 3Pal = N[C@@H](Cc1cccnc1)C(=O)O

Assay: Degradation rates of 1 mg/mL solutions of AXN-001 at different pH and temperatures over 30 days
Type: physicochemical
Experimental: To achieve the higher pH values, an isotonic 10 mM phosphate buffer was used.
The degradation rates were then determined for 1 mg/mL solutions of AXN-001 at pH 3.5, 4.5, 5.5, 6.5, and 7.5, when kept at 2-8°C, 25°C, 40°C, and 60°C for 30 days. Table 1: Degradation rates
Degradation rates at 2-8° C were not determined ("n.d.") because degradation could not be measured at thirty days (with the exception of pH 7.5).

Degradation Rates (pH 3.5, 25°C): 0.058 %/day
Degradation Rates (pH 3.5, 40°C): 0.20 %/day
Degradation Rates (pH 3.5, 60°C): 1.50 %/day
Degradation Rates (pH 4.5, 25°C): 0.019 %/day
Degradation Rates (pH 4.5, 40°C): 0.12 %/day
Degradation Rates (pH 4.5, 60°C): 1.19 %/day
Degradation Rates (pH 5.5, 25°C): 0.007 %/day
Degradation Rates (pH 5.5, 40°C): 0.23 %/day
Degradation Rates (pH 5.5, 60°C): 3.18 %/day
Degradation Rates (pH 6.5, 25°C): 0.039 %/day
Degradation Rates (pH 6.5, 40°C): 0.54 %/day
Degradation Rates (pH 6.5, 60°C): 3.47 %/day
Degradation Rates (pH 7.5, 2-8°C): 0.02 %/day
Degradation Rates (pH 7.5, 25°C): 0.605 %/day
Degradation Rates (pH 7.5, 40°C): 1.62 %/day
Degradation Rates (pH 7.5, 60°C): 5.55 %/day
SMILES: CC(C)NCCC[C@@H]1NC(=O)[C@@H](NC(=O)[C@H](Cc2ccccc2C(N)=O)NC(=O)[C@H](NC(=O)c2ncco2)C(C)C)CSSC[C@@H](C(=O)N[C@@H](Cc2cccnc2)C(N)=O)NC(=O)[C@H](Cc2ccccc2)NC(=O)[C@@H]2CCCN2C(=O)CNC(=O)[C@H](C(C)C)NC(=O)[C@H](CC(=O)O)NC1=O [AXN-001, Oxazole-2-carbonyl-D-Val-Phe(2-Cbm)-c(Cys-Orn (iPr)-Asp-Val-Gly-Pro-Phe-Cys)-3Pal-NH2] (Oxazole2carbonyl-[dV][Phe(2-CONH2)]C[Orn(iPr)]DVGPFC[3Pal]-NH2; disulfide 3-10)
